Measurements: paper PMC6843786, “Temporin-SHa and Its Analogs as Potential Candidates for the Treatment of Helicobacter pylori” (Biomolecules, 2019)

Legend:
human gastric explants [1] = experiment: Ex vivo toxicity assay, histological examination (H&E) of human gastric explants; assay type: cell-based; conditions: 2, 4 or 8 h; peptides 100 µM, CTAB 300 µM; H&E staining
Description: To further evaluate the innocuity of the peptides, ex vivo experiments were performed using human explants as previously described. Briefly, human gastric tissue samples were obtained from patients undergoing surgery at the Hospital Laveran (Marseille, France), unit of gastrointestinal surgery according to a collaborative clinical transfer project. The procedures were approved by the French ethic committee (CODECOH n° DC-2019-3402). All patients agreed for the use of their tissues for research purposes. Samples were taken from healthy patients during sleeve gastrectomy from macroscopically unaffected area as identified by the surgeons. After resection, the specimens were placed in ice-cold oxygenated sterile DMEM solution containing 1% streptomycin/penicillin solution and 50 μg/mL gentamycin and were directly transferred to the laboratory within 15 min on ice. Gastric tissues were extensively washed and maintained in ice-cold culture media containing 1% streptomycin/penicillin solution and 50 μg/mL gentamycin. […] Quantification of the release of LDH was also used in addition to microscopic observations to evaluate the impact of peptides on human gastric explants. […] The LDH activity was measured using previously described protocol with minor changes. […] Increase in OD339nm was then measured at 30 °C after 0, 1, 5, and 10 min using microplate reader (Synergy Mx, Biotek). […]

human gastric explants [2] = experiment: Ex vivo toxicity assay, LDH release from human gastric explants; assay type: cell-based; conditions: peptides 100 µM, CTAB 300 µM, % of total release
Description: To further evaluate the innocuity of the peptides, ex vivo experiments were performed using human explants as previously described. Briefly, human gastric tissue samples were obtained from patients undergoing surgery at the Hospital Laveran (Marseille, France), unit of gastrointestinal surgery according to a collaborative clinical transfer project. The procedures were approved by the French ethic committee (CODECOH n° DC-2019-3402). All patients agreed for the use of their tissues for research purposes. Samples were taken from healthy patients during sleeve gastrectomy from macroscopically unaffected area as identified by the surgeons. After resection, the specimens were placed in ice-cold oxygenated sterile DMEM solution containing 1% streptomycin/penicillin solution and 50 μg/mL gentamycin and were directly transferred to the laboratory within 15 min on ice. Gastric tissues were extensively washed and maintained in ice-cold culture media containing 1% streptomycin/penicillin solution and 50 μg/mL gentamycin. Tissues were cleaned from vascular vessels and conjunctive tissue using forceps under binocular microscope. Gastric explants (wet weight of 20–30 mg) were then isolated from the cleaned resections using surgical punch (diameter of 0.5 cm^2). […] Finally, the explants were washed three times with culture media without antibiotics and transferred into 24-well plates before being incubated in RPMI media without fetal bovine serum, antibiotics and phenol red at 37 °C in the 5% CO2 incubator with 100 µM of peptides for 2, 4 or 8 h. Phenol red was omitted from the culture media since it interferes with the lactate dehydrogenase (LDH) assay. The detergent cetyl-trimethylammonium bromide (CTAB) at 300 µM was used as positive control of tissue damages. At the end of the incubation, the explants were collected and washed three times with PBS^++ and were fixed overnight at 4 °C with PFA diluted at 4% in PBS. After that, gastric explants were washed twice with PBS and were included in an inclusion medium (TFM-EMS), in transverse position to allow cutting in the crypt-villosity axis using cryostat (Leica CM3050) (Leica Microsystems, Nanterre, France). Four sections of 5 µm thickness were obtained per explant, each section being separated by 100 µm from the next in order to cover all the tissue. Explants were then stained using hematoxylin and eosin (H&E) staining protocol. Briefly, samples were incubated for 8 min in hematoxylin (Sigma-Aldrich) and then allowed to stain by incubation with water for 2 min. Then explants were incubated for 1 min in eosin (Sigma-Aldrich) and then in water for 1 min. This was followed by incubation of explants with ethanol at concentration of 70% then 95% and finally 100% for 2 min each. After blotting excess ethanol, gastric explants were incubated for 15 min with xylene and mounted with coverslip using Eukitt mounting media (EMS, Hatfield, PA, USA). Finally, explants were left overnight to dry before examination of tissue organization under the microscope (Leitz DMRB microscope (Leïca), equipped with Leïca DFC 450C camera). Quantification of the release of LDH was also used in addition to microscopic observations to evaluate the impact of peptides on human gastric explants. Briefly, after 2, 4 or 8 h of incubation of the explants with the peptides, the supernatants of the wells were collected and stored at -80 °C before the LDH assay. The LDH activity was measured using previously described protocol with minor changes. Briefly, 50 µL of supernatants obtained from explants were mixed with 200 µL of Tris-Lactate buffer (containing Tris HCl at 86 mM, L-Lactate at 56 mM and KCl at 172 mM, pH 9.3, all from Sigma-Aldrich) and 20 µL of NAD (at 172 mM, Sigma-Aldrich) into well of 96-wells plates. Increase in OD339nm was then measured at 30 °C after 0, 1, 5, and 10 min using microplate reader (Synergy Mx, Biotek). […]

## CCCCCCCCCCCCCCCC[N+](C)(C)C [CTAB, cetyl-trimethylammonium bromide, reference compound]
Human gastric explants [1]
  tissue organization by microscopic observation: major alterations of the tissue architecture
Human gastric explants [2]; 2 h
  LDH release: 81.1%
Human gastric explants [2]; 4 h
  LDH release: 90.3%
Human gastric explants [2]; 8 h
  LDH release: 100%
